Experimental data taken from patent publication US11638712B2, “Bis(acetamidophenyl) guanidinophenylethylphosphonates for use in the prevention and/or treatment of PAR-related diseases” (Universiteit Antwerpen, priority 2016, dated 2023).
Like-named read-outs stand apart in the source and are kept apart here.

Experiments:
tPA = tPA (Homo sapiens, UniProt P00750); experiment: in vitro serine protease inhibition profile: tPA; type: biochemical
tryptase = tryptase (Homo sapiens, UniProt Q15661); experiment: in vitro serine protease inhibition profile: tryptase; type: biochemical
Chain of tryptase (Q15661 31-275): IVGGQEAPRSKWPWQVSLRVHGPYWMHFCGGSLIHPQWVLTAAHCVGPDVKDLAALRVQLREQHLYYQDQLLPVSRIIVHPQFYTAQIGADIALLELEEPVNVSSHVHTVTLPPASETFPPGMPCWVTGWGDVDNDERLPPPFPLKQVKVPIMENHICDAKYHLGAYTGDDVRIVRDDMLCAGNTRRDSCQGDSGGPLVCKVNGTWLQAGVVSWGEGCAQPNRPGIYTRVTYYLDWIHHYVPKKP

uPA = uPA (Homo sapiens, UniProt P00749); experiment: in vitro serine protease inhibition profile: uPA; type: biochemical; conditions: read-out: IC50 uPA
thrombin = biological target: T1, thrombin (Homo sapiens, UniProt P00734); experiment: in vitro serine protease inhibition profile: thrombin; type: biochemical; conditions: read-out: IC50 thrombin
T1 construct: panel of serine proteases: uPA, tPA, thrombin, plasmin, FXIIa

KLK2 = KLK2 (Homo sapiens, UniProt P20151); experiment: in vitro serine protease inhibition profile: KLK2; type: biochemical
Chain of KLK2 (P20151 25-261, species assumed): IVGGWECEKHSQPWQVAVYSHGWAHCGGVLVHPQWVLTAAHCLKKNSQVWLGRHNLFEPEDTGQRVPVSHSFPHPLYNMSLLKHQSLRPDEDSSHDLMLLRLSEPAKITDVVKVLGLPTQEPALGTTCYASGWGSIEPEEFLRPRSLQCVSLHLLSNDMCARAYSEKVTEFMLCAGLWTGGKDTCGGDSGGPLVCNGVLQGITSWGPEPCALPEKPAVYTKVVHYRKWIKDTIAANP

KLK8 = biological target: T2, KLK8 (Homo sapiens, UniProt O60259); experiment: in vitro serine protease inhibition profile: KLK8; type: biochemical
T2 sequence (O60259 33-260): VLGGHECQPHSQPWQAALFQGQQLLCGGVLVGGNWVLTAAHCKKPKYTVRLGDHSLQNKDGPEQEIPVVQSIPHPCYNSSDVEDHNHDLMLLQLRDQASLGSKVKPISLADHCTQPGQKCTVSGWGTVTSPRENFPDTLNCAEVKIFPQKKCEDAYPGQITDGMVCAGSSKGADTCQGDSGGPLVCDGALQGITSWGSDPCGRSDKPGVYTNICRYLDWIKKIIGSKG

KLK1 = KLK1 (Homo sapiens, UniProt P06870); experiment: in vitro serine protease inhibition profile: KLK1; type: biochemical
Chain of KLK1 (P06870 25-262, species assumed): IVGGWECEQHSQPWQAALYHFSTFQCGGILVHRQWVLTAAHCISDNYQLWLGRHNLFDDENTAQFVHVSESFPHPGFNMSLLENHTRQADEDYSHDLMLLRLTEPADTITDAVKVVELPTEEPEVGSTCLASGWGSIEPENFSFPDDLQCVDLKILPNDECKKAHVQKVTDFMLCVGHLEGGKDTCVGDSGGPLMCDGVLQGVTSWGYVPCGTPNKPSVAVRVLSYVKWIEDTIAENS

HNE = biological target: T3, HNE (Homo sapiens, UniProt P08246); experiment: in vitro serine protease inhibition profile: HNE; type: biochemical
T3 sequence (P08246 30-267): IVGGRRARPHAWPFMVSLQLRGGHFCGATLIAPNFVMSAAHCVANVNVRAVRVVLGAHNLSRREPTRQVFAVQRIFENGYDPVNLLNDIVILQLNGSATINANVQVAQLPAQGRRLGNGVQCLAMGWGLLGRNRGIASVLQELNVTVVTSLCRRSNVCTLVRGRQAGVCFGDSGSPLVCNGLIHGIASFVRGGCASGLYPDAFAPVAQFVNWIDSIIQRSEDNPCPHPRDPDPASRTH

post-colitis rats = experiment: post-colitis rat model for visceral pain, visceromotor response (VMR) to colorectal distension; conditions: post-colitis rats, 10 mg/kg
Description: Male Sprague-Dawley rats (200-225 g; Charles River, Italy) were used in all experiments. Rats were housed at a constant room temperature (22±2° C.) and humidity (60%). The animals had unlimited access to water and food and were kept on a 12 h:12 h day-night cycle. They were allowed to acclimatize for at least 1 week before the start of the experiments.
In this set-up, a mild colitis was induced in the post-colitis group on day 0, using a TNBS-enema. The control group received an intrarectal administration with 0.9% NaCl. The presence of colitis was verified by a colonoscopy on day 3. From day 10 onwards, a colonoscopy was performed every 4 days to follow-up the healing of the colonic mucosa. When the colonic mucosa was completely healed, further experiments were performed 3 days later. […] After the VMR measurement, the animals were sacrificed.
TNBS-colitis was induced at day 0 using a TNBS-enema (4 mg TNBS, 50% ethanol). […] Control animals received 0.25 ml 0.9% NaCl intrarectally. The animals were kept in a tail-up position during 1 min and were then allowed to recover in a Trendelenburg position.
Electromyographic (EMG) electrodes were implanted into the external abdominal muscle and 3 days later, the VMR experiment was performed in conscious rats. A lubricated balloon (length 5 cm) was introduced into the colorectum of the animal and connected to a barostat (Distender Series II Barostat, G&J Electronics, Canada). The EMG electrodes were attached to a data-acquisition system and a phasic distension protocol (10-20-30-40-60 mmHg, 20 s, 4 min interval) was sent through the barostat. […] The VMR was quantified using the area under the curve (AUC) of the EMG signal during the distension (20 s) corrected for the EMG signal before the distension (20 s).
22.0. The results of the VMR experiments analyzed using a Generalized Estimating Equations (GEE) test with Least Significant Difference (LSD) post-hoc test. A p-value<0.05 was considered as being statistically significant. The graphs were made with GraphPad Prism 6.0.
Visceral sensitivity was assessed using the visceromotor responses (VMRs) to a colorectal distension, shown in the graphs below as area under the curve (AUC; y-axis; μV.20 s-1) for each distension pressure (x-axis; mmHg). Serine proteases seem to play an important role in the pathogenesis of visceral pain.

matriptase = biological target: T4, matriptase (Homo sapiens, UniProt Q9Y5Y6); experiment: in vitro serine protease inhibition profile: matriptase; type: biochemical
T4 sequence (Q9Y5Y6 1-855): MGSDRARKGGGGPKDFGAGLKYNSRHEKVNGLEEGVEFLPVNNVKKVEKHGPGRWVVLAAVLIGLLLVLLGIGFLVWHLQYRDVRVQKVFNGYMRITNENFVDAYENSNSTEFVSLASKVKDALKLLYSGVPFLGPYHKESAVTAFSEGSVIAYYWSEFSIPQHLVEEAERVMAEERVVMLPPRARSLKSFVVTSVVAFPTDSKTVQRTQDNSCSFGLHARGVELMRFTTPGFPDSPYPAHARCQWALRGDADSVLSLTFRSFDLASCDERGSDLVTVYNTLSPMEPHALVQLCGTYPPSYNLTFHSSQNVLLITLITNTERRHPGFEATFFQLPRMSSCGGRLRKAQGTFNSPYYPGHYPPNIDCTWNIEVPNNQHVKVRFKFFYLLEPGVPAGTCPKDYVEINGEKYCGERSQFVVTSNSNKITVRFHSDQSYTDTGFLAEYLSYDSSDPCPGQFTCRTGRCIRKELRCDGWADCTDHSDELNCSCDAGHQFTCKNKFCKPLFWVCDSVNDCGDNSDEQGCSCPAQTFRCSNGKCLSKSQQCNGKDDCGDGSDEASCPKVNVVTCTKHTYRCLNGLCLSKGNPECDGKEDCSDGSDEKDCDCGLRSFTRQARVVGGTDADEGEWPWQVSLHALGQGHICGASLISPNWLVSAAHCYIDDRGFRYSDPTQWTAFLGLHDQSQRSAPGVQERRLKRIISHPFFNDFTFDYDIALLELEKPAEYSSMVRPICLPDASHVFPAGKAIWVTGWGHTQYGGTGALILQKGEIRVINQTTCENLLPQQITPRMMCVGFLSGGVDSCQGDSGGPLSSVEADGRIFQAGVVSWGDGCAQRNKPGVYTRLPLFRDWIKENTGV

KLK4 = KLK4 (Homo sapiens, UniProt Q9Y5K2); experiment: in vitro serine protease inhibition profile: KLK4; type: biochemical
Chain of KLK4 (Q9Y5K2 31-254, species assumed): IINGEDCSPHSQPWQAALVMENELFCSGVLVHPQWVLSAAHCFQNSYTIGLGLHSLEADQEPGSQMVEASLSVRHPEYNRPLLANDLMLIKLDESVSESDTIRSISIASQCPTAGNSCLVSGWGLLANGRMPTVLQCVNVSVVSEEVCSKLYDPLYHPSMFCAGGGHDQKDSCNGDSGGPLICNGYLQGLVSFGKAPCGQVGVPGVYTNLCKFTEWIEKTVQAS

plasmin = biological target: T5, plasmin (Homo sapiens, UniProt P00747); experiment: in vitro serine protease inhibition profile: plasmin; type: biochemical
T5 construct: panel of serine proteases: uPA, tPA, thrombin, plasmin, FXIIa
T5 sequence (P00747 581-810 limits assumed, species assumed): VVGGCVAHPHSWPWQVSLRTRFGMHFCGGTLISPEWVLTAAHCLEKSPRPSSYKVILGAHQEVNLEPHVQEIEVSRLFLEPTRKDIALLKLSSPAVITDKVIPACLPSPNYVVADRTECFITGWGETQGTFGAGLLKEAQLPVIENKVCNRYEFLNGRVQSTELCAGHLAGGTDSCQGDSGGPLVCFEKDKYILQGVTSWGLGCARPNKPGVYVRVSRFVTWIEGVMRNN
T5 sequence (P00747 97-580 partner limits assumed, species assumed): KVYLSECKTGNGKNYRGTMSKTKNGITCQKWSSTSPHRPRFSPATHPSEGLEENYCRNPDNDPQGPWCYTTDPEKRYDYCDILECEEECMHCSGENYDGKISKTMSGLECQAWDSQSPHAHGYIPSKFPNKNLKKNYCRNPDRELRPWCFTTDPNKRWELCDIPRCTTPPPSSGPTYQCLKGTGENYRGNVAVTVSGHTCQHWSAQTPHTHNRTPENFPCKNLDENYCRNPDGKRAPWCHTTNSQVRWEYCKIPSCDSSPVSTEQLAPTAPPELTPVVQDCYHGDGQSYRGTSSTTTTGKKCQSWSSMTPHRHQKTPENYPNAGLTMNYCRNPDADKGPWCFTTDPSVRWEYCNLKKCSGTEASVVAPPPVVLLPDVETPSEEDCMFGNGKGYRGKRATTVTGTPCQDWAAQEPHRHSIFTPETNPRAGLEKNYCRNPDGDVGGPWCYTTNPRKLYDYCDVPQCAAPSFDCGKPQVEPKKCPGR

cathepsinG = biological target: T6, cathepsinG (Homo sapiens, UniProt P08311); experiment: in vitro serine protease inhibition profile: cathepsinG; type: biochemical
T6 sequence (P08311 21-244): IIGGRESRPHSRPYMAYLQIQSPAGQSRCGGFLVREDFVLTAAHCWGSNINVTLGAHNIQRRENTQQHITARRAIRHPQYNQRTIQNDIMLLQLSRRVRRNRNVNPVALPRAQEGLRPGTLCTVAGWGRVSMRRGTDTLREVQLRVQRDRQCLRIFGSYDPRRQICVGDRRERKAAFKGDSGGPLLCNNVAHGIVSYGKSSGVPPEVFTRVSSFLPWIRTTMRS

FXIIa = biological target: T7, FXIIa (Homo sapiens, UniProt P00748); experiment: in vitro serine protease inhibition profile: FXIIa; type: biochemical
T7 construct: panel of serine proteases: uPA, tPA, thrombin, plasmin, FXIIa
T7 sequence (P00748 373-615 limits assumed, other chains not shown): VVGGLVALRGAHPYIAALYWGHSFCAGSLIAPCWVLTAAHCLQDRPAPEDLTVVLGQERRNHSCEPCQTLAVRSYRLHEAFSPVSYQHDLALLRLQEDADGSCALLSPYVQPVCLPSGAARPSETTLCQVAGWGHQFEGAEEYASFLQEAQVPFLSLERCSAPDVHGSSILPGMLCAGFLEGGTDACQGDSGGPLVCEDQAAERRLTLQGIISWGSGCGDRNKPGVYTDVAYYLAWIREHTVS

Chain of tPA (P00750 36-562, species assumed): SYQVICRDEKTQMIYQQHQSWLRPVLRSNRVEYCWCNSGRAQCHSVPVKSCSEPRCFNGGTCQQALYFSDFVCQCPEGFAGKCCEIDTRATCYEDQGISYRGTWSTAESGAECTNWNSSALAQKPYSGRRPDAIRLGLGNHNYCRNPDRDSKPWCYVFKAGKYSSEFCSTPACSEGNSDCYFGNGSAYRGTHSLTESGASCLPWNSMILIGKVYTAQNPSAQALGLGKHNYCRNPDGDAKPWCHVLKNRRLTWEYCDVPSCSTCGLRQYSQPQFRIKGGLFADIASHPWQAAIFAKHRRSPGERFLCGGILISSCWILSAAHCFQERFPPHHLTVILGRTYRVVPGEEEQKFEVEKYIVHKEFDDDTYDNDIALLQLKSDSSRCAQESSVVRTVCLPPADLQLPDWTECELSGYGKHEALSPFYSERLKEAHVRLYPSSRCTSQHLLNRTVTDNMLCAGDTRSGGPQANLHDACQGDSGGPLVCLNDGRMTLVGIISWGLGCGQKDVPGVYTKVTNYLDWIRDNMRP

| SMILES | IC50 (tPA) | IC50 (tryptase) | IC50 (matriptase) | IC50 (KLK2) | IC50 (KLK8) | IC50 (KLK1) | IC50 (HNE) | IC50 (plasmin) | also measured |
| --- | --- | --- | --- | --- | --- | --- | --- | --- | --- |
| N=C(N)c1ccc2cc(OC(=O)c3ccc(N=C(N)N)cc3)ccc2c1 [Nafamostat] | – | – | – | – | – | – | – | – | IC50 (tPA; read-out: IC50 tPA): > 2500 nM; IC50 (tryptase; read-out: IC50 tryptase): < 1 nM; IC50 (uPA): < 1 nM; IC50 (thrombin): ~500000 nM; IC50 (KLK2; read-out: IC50 KLK2): ~100 nM; IC50 (KLK8; read-out: IC50 KLK8): ~15 nM; IC50 (KLK1; read-out: IC50 KLK1): ~1000 nM; IC50 (HNE; read-out: IC50 HNE): > 2500 nM; effect on VMRs (visceral pain) (post-colitis rats): no significant effect on visceral pain could be detected |
| N=C(N)Nc1ccc(CC(NC(=O)OCc2ccccc2)P(=O)(Oc2ccccc2)Oc2ccccc2)cc1 (centres unmarked) [Compound 3] | > 2500 nM | 83 nM | 150 nM | 90 nM | 42 nM | > 2500 nM | > 2500 nM | > 2500 nM | IC50 (KLK4; read-out: IC50 KLK4): 12 nM |
| COC(=O)NC(Cc1ccc(NC(=N)N)cc1)P(=O)(Oc1ccc(NC(C)=O)cc1)Oc1ccc(NC(C)=O)cc1 (centres unmarked) [Compound 2] | > 2500 nM | 3 nM | 8 nM | 315 nM | 13 nM | > 2500 nM | > 2500 nM | > 2500 nM | IC50 (cathepsinG): 61 nM; IC50 (KLK4): 26 nM; IC50 (FXIIa): 3140 nM |
